Reference: ChEMBL document CHEMBL2390946, “Discovery of TAK-960: an orally available small molecule inhibitor of polo-like kinase 1 (PLK1)” (Bioorg Med Chem Lett, 2013)

What was measured:
Type in all cases: ADME, organism-based
[1] = Half life in rat at 1 mg/kg, iv and 5 mg/kg, po; settings: in vivo
[2] = Oral bioavailability in rat at 5 mg/kg; settings: in vivo
[3] = Volume of distribution at steady state in rat at 1 mg/kg, iv and 5 mg/kg, po; settings: in vivo, read-out: Vdss
[4] = Clearance in rat at 1 mg/kg, iv and 5 mg/kg, po; settings: in vivo

| half-life [1] [h] | bioavailability [2] [%] | Vd [3] [L/kg] | clearance [4] [mL/min/kg] | SMILES |
| --- | --- | --- | --- | --- |
| 5.4 | 54 | 13.7 | 42 | COc1cc(C(=O)NC2CCN(C)CC2)c(F)cc1Nc1ncc2c(n1)N(C1CCCC1)CC(F)(F)C(=O)N2C [TAK-960] |
| 3.3 | 11 | 19.6 | 51 | COc1cc(C(=O)NC2CCN(C)CC2)ccc1Nc1ncc2c(n1)N(C1CCCC1)CC(F)(F)C(=O)N2C |
